Laboratory results from publication PMC5136619, “Crystal structure of bacterial haem importer complex in the inward-facing conformation” (Nature Communications, 2016).

Target: T1, BhuUV-T (Burkholderia cenocepacia, UniProt B4EKB5)
T1 construct: gene hmuV; His8-BhuU full length with BhuV, plus haem-free BhuT 40-311 (GST cut off by PreScission) in ATPase assay; GFP-tagged BhuT in pull-down; heteropentamer; with Heme ABC transporter permease BhuU
Assay: His-tag pull-down, release of GFP-BhuT from immobilized BhuUV
Type: binding
Conditions: 1 mM AMP–PNP, 1 mM MgCl2, 0.15% DM, pH 7.5, on ice; nucleotide site of BhuV

T1 sequence (B4EKB3 entry or part of it): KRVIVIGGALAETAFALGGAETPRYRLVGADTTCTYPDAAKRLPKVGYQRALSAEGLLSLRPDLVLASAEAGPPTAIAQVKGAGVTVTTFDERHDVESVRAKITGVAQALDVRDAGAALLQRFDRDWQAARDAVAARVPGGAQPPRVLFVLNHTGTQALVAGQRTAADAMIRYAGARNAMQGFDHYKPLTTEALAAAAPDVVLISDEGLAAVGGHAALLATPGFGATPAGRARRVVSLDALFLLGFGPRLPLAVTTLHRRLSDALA
T1 sequence (B4EKB4 entry or part of it, further chain): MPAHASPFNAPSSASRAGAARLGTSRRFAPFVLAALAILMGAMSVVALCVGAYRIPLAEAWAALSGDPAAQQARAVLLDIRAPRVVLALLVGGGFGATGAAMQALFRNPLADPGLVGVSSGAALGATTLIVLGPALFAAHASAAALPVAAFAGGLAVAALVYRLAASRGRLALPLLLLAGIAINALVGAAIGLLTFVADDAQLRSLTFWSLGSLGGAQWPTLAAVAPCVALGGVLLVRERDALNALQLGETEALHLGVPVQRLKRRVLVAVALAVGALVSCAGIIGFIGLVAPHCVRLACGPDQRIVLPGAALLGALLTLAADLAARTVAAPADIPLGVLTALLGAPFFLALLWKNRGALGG
T1 sequence (B4EKB5 entry or part of it): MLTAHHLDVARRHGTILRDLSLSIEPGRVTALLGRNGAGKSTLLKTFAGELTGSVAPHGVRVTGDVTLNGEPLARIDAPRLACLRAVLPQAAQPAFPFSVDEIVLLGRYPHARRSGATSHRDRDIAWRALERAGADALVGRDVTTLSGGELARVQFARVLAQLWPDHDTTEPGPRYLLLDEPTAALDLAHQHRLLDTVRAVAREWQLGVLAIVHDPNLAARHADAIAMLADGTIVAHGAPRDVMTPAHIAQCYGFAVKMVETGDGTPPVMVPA

For `Nc1ncnc2c1ncn2[C@@H]1O[C@H](COP(=O)(O)OP(=O)(O)NP(=O)(O)O)[C@@H](O)[C@H]1O` [AMP–PNP], the “His-tag pull-down, release of GFP-BhuT from immobilized BhuUV” value was “both ATP and AMP–PNP caused the dissociation of GFP-BhuT from BhuUV”.
